Results as given in patent US20110070269A1, “LIPOPOLYSACCHARIDE ISOLATED FROM PYRULARIA TISSUE AND/OR PYRULARIA-ASSOCIATED BACTERIA AND USES THEREOF” (THERAPRO TECHNOLOGIES, INC., priority 2009, published 2011).

How the values were obtained:
[1] = tested on: murine bone marrow cells; assay: Bone marrow activation assay (flow cytometry, percent of cells activated); assay type: cell-based, mouse; conditions: 3 mM
Protocol: Bone marrow was flushed from the femurs of Balb/C mice with RPMI medium. Cells were collected by centrifugation and the pellet treated with 1 mL of red cell lysis buffer (as described above) for five minutes at 25° C., followed by dilution with 12 mL of RPMI media. Cells were washed by two cycles of centrifugation and resuspension in RPMI. On the final wash, cells were counted using a hemocytometer and the final pellet was resuspended to 4×10^6 cells/mL with RPMI media for use in activation assays, which were quantitated by flow cytometric analysis (described below).
Cells (200 μL, prepared as described above) were collected after gentle trituration to resuspend cells. Each aliquot was diluted with 1 mL PBS, centrifuged to pellet the cells, and the supernatant liquid was removed. The washed cells were sequentially stained in the dark at 4° C. for 15 minutes with anti-CD16/32 to prevent non-specific labeling, then for 45 minutes with either anti-Mac-1-FITC×anti-Mac-1-PE or with Gr-1-FITC×Mac-1-PE. Cells were washed once at 4° C. with 1 mL of PBS and then resuspended in 1 mL of PBS. Human cells were labeled with anti-Mac-1 as above or with anti-Mac-1-FITC×anti-CD14. […] Approximately 15-20×10^3 cells were counted for each analysis. Percent of cells activated was determined as: […]

[2] = tested on: bone marrow cells; assay: Bone marrow cell viability (propidium iodide exclusion); assay type: cell-based; conditions: mouse, 3 mM
Protocol: Cells (200 μL, prepared as described above) were collected after gentle trituration to resuspend cells. Each aliquot was diluted with 1 mL PBS, centrifuged to pellet the cells, and the supernatant liquid was removed. The washed cells were sequentially stained in the dark at 4° C. for 15 minutes with anti-CD16/32 to prevent non-specific labeling, then for 45 minutes with either anti-Mac-1-FITC×anti-Mac-1-PE or with Gr-1-FITC×Mac-1-PE. Cells were washed once at 4° C. with 1 mL of PBS and then resuspended in 1 mL of PBS. Human cells were labeled with anti-Mac-1 as above or with anti-Mac-1-FITC×anti-CD14. A Coulter EPICS-XL™ flow cytometer was used to enumerate dual, positively-staining control sub-populations and detection of nascent stimulated sub-populations. Activated sub-populations, which labeled with more intensity along the y-axis in Gr-I-FITC×Mac-1-PE, were designated as Mac-1^+hi. Control unactivated cells that also stained positively in both dimensions were designated, Mac-1^+lo. Dead cells were eliminated from analysis by prior staining with propidium iodide. Approximately 15-20×10^3 cells were counted for each analysis. Percent of cells activated was determined as:
Over 15×10^3 cells were analyzed for each sample. Bone marrow cell viability among all samples including the untreated control was 70-76% as determined by propidium iodide exclusion.

[3] = Physical analysis: stability of the immunostimulatory/mitogenic activity; assay type: physicochemical; conditions: proteinase K 50 μg/ml, 10 mM Tris pH 8.0, 10 mM EDTA, 0.5% SDS, 56° C., 30 minutes
Protocol: A mitogenic assay was used as a measure of immunostimulation. For the mitogen assay, isolated cells were diluted to 1.5×10^6 cells/mL. Aliquots of cells (200 μL/well) were incubated in sterile 96-well plates for 24 to 48 hours prior to the addition of 1 μCi/well of [^3H]thymidine. Radiolabeled DNA was collected on glass fiber filters by means of an Inotech cell harvester (Rockville, Md.) and associated radioactivity was determined by means of an Inotech radiometric instrument or by scintillation counting of individual filters. TLF-D, a proprietary reagent, was utilized at 10 μg/ml to amplify the mitogenic activity of Pyrularia extract (PyEx) in a synergistic fashion.

[4] = tested on: Balb/C mice; assay: In vivo neutropenia model (sub-lethal cyclophosphamide); parameters: species or system mouse; conditions: day five
Protocol: Eighteen to twenty-four hours later (day 1), control mice received an injection of saline and the PyEx group received a single dose of PyEx (20 μg/mouse). Mice were bled sequentially via the retro-orbital sinus or tail vein at various times thereafter. Blood was collected in heparinized capillary tubes.
For determination of total versus white cells, blood was diluted into Isoton II (Beckman-Coulter, Fullerton, Calif.). Total cells and white cells were counted using a Model ZM Coulter counter (Beckman-Coulter, Fullerton, Calif.). White cell counts were determined following treatment of whole blood with a RBC lytic reagent (Zap-Oglobin, Beckman-Coulter, Fullerton, Calif.). Blood granulocytes and myelocytes were quantitated by means of an EPICS-XL™ flow cytometry after lysis of red cells.
To more clearly determine what populations of cells were stimulated by treatment with PyEx, in a similar experiment blood and bone marrow cells were collected and analyzed for total blood granulocytes and myelocytes. […] PyEx-1 (20 μg/mouse) was given to mice 24 hours after administration of CP. Blood from PyEx-1 treated experimental and saline treated control mice was collected with heparinized capillary tubes five days after CP administration. Following lysis of red cells, the remaining cells were analyzed by means of an EPICS-XL™ flow cytometer (Beckman-Coulter, Fullerton, Calif.). […]

[5] = tested on: human bone marrow cells; assay: Activation of human bone marrow (Mac-1 x CD14 flow cytometry); assay type: cell-based; conditions: 5 ng/mL, fresh marrow from normal donor
Protocol: Human bone marrow was provided by the Bone Marrow Transplantation Unit, University of Utah. Experiments were initiated upon obtaining fresh marrow from normal donors. Whole marrow was treated as described above for murine marrow samples. Following incubation for 24 to 36 hours with PyEx or other agents as described, cells were stained with anti-Mac-1-FITC×anti-CD14-PE. Cells were analyzed using a Coulter EPICS-XL™ flow cytometer (Beckman-Coulter, Fullerton, Calif.). Activated populations were identified by positive staining with Mac-1×CD14 (designated Mac-1^+, CD14^+).

[6] = tested on: Balb/C mice; assay: Prevention of drug-induced (melphalan) toxic death; assay type: in vivo, mouse; conditions: melphalan 100 mg/kg i.p. alone
Protocol: The effect of PyEx upon myelocyte stimulation was also observed in vivo as prevention of drug-induced myelosuppression. […] A separate group received melphalan (100 mg/kg, i.p.) and PyEx-1 (10 μg/mouse, subcutaneously). PyEx-1 was given immediately after or as late as 18 hours after melphalan administration, and every 48 hours thereafter.

## CC(=O)CCCCn1c(=O)c2c(ncn2C)n(C)c1=O [pentoxifylline]
[1]
  Activation: 7.54%
[2]
  Viability: 61.5%

## concanavalin A
[3]
  effect of proteinase K treatment on mitogenic activity: completely inactivate

## O=P1(N(CCCl)CCCl)NCCCO1 (stereo not drawn) [Cyclophosphamide]
[4]; CP 200 mg/kg alone
  total WBC restoration, % of the difference between the nadir value and the control value: 45%
[4]; cyclophosphamide 200 mg/kg alone, blood
  Percentage of Granulocytes in Control: 1%

## rhGM-CSF: Recombinant human granulocyte macrophage-colony stimulating factor
[5]
  activated sub-population (Mac-1+, CD14+), % of total cells: 9%

## N[C@@H](Cc1ccc(N(CCCl)CCCl)cc1)C(=O)O [Melphalan, melphalan]
[6]
  Average time of death: day 7
  Drug related deaths/# in group: 3/6
[6]; listed as melphalan
  Average time of death: eight
